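Briefly, cells in 96-well plates were exposed to five compound concentrations for 48 h, and endpoints were estimated by linear interpolation. GI50 = concentration required for 50% inhibition of growth.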 Active and inactive are the calls of the source. Rule as the data show it: active = GI50 up to about 1.1 µM and inactive = higher.
Legend:
Assay in all cases: inhibition of tumour cell growth, NCI panel, 48 h
786-0 = test system: 786-0
A498 = test system: A498
A549 = test system: A549
ACHN = test system: ACHN
BT-549 = test system: BT-549
CAKI-1 = test system: CAKI-1
CCRF-CEM = test system: CCRF-CEM
EKVX = test system: EKVX
HCC 2998 = test system: HCC 2998
HCT-15 = test system: HCT-15
HL-60 = test system: HL-60
HOP-92 = test system: HOP-92
HT-29 = test system: HT-29
Hs-578T = test system: Hs-578T
IGROV-1 = test system: IGROV-1
K562 = test system: K562
KM12 = test system: KM12
LOX IMVI = test system: LOX IMVI
M14 = test system: M14
MCF7 = test system: MCF7
MOLT-4 = test system: MOLT-4
NCI-H226 = test system: NCI-H226
NCI-H23 = test system: NCI-H23
NCI-H460 = test system: NCI-H460
NCI/ADR-RES = test system: NCI/ADR-RES
OVCAR-3 = test system: OVCAR-3
OVCAR-4 = test system: OVCAR-4
OVCAR-5 = test system: OVCAR-5
OVCAR-8 = test system: OVCAR-8
PC-3 = test system: PC-3
RPMI-8226 = test system: RPMI-8226
SF-268 = test system: SF-268
SF-539 = test system: SF-539
SK-MEL-28 = test system: SK-MEL-28
SK-MEL-5 = test system: SK-MEL-5
SK-OV-3 = test system: SK-OV-3
SN12C = test system: SN12C
SNB-19 = test system: SNB-19
SNB-75 = test system: SNB-75
SR = test system: SR
SW-620 = test system: SW-620
TK-10 = test system: TK-10
U-251 = test system: U-251
UACC-62 = test system: UACC-62
UO-31 = test system: UO-31
COLO 205 = test system: COLO 205
DU-145 = test system: DU-145
HCT-116 = test system: HCT-116
HOP-62 = test system: HOP-62
MDA-MB-231 = test system: MDA-MB-231
MDA-MB-435 = test system: MDA-MB-435
MDA-N = test system: MDA-N
Malme-3M = test system: Malme-3M
NCI-H522 = test system: NCI-H522
RXF 393 = test system: RXF 393
SF-295 = test system: SF-295
SK-MEL-2 = test system: SK-MEL-2
T47D = test system: T47D
UACC-257 = test system: UACC-257

Measured: GI50

CC1C2=C(O)CC(C)(C)CC2=NC2=C1C(=O)CC(C)(C)C2 (stereo unspecified)
> 100 µM: HCT-15
inactive: 786-0 > 100 µM | A498 > 100 µM | A549 > 100 µM | ACHN > 100 µM | BT-549 > 100 µM | CAKI-1 > 100 µM | CCRF-CEM > 100 µM | EKVX > 100 µM | HCC 2998 > 100 µM | HL-60 > 100 µM | HOP-92 > 100 µM | HT-29 > 100 µM | Hs-578T > 100 µM | IGROV-1 > 100 µM | K562 91.8 µM | KM12 > 100 µM | LOX IMVI > 100 µM | M14 > 100 µM | MCF7 > 100 µM | MOLT-4 > 100 µM | NCI-H226 > 100 µM | NCI-H23 > 100 µM | NCI-H460 > 100 µM | NCI/ADR-RES > 100 µM | OVCAR-3 > 100 µM | OVCAR-4 > 100 µM | OVCAR-5 > 100 µM | OVCAR-8 > 100 µM | PC-3 > 100 µM | RPMI-8226 > 100 µM | SF-268 > 100 µM | SF-539 > 100 µM | SK-MEL-28 > 100 µM | SK-MEL-5 > 100 µM | SK-OV-3 > 100 µM | SN12C > 100 µM | SNB-19 > 100 µM | SNB-75 83 µM | SR > 100 µM | SW-620 > 100 µM | TK-10 > 100 µM | U-251 > 100 µM | UACC-62 > 100 µM | UO-31 > 100 µM

COC(=O)NC(=O)NC(Cc1ccccc1)NC(=O)OCc1ccccc1 (stereo unspecified)
inactive: 786-0 37.8 µM | A498 30.3 µM | A549 97.7 µM | ACHN > 100 µM | BT-549 31.1 µM | CAKI-1 > 100 µM | CCRF-CEM > 100 µM | COLO 205 > 100 µM | DU-145 > 100 µM | EKVX > 100 µM | HCC 2998 > 100 µM | HCT-116 39.3 µM | HL-60 > 100 µM | HOP-62 47.2 µM | HOP-92 18.1 µM | HT-29 > 100 µM | IGROV-1 70.8 µM | K562 > 100 µM | KM12 > 100 µM | LOX IMVI > 100 µM | M14 > 100 µM | MCF7 > 100 µM | MDA-MB-231 18.5 µM | MDA-MB-435 > 100 µM | MDA-N > 100 µM | MOLT-4 > 100 µM | Malme-3M > 100 µM | NCI-H226 > 100 µM | NCI-H23 40.3 µM | NCI-H460 > 100 µM | NCI-H522 28.3 µM | NCI/ADR-RES > 100 µM | OVCAR-3 > 100 µM | OVCAR-4 > 100 µM | OVCAR-5 > 100 µM | OVCAR-8 74.1 µM | PC-3 > 100 µM | RPMI-8226 > 100 µM | RXF 393 20.5 µM | SF-268 48.1 µM | SF-295 35.5 µM | SF-539 19.6 µM | SK-MEL-28 > 100 µM | SK-MEL-2 63.2 µM | SK-MEL-5 > 100 µM | SK-OV-3 18 µM | SN12C > 100 µM | SNB-19 42.7 µM | SNB-75 20.2 µM | SR > 100 µM | SW-620 > 100 µM | T47D > 100 µM | TK-10 45.4 µM | U-251 44.1 µM | UACC-257 > 100 µM | UACC-62 > 100 µM | UO-31 30.9 µM
> 100 µM: HCT-15

COc1cc(/C=C2/SC(c3ccccc3)N(c3cc(Cl)ccc3Cl)C2=O)cc(OC)c1OC (stereo unspecified)
50.6 µM: HCT-15
inactive: 786-0 > 100 µM | A498 > 100 µM | A549 > 100 µM | ACHN > 100 µM | BT-549 > 100 µM | CAKI-1 23.2 µM | CCRF-CEM 38.5 µM | COLO 205 > 100 µM | DU-145 > 100 µM | EKVX 84.9 µM | HCC 2998 > 100 µM | HCT-116 46.3 µM | HL-60 51.9 µM | HOP-62 > 100 µM | HOP-92 > 100 µM | HT-29 > 100 µM | IGROV-1 44.9 µM | K562 59 µM | KM12 35.7 µM | LOX IMVI 67.6 µM | M14 50.9 µM | MCF7 30.8 µM | MDA-MB-231 > 100 µM | MDA-MB-435 22.3 µM | MDA-N 19.1 µM | MOLT-4 > 100 µM | Malme-3M 62.8 µM | NCI-H226 > 100 µM | NCI-H23 > 100 µM | NCI-H460 > 100 µM | NCI-H522 47.1 µM | NCI/ADR-RES 64.4 µM | OVCAR-3 52.2 µM | OVCAR-4 49.8 µM | OVCAR-5 > 100 µM | OVCAR-8 > 100 µM | PC-3 65.5 µM | RPMI-8226 23.8 µM | RXF 393 45.8 µM | SF-295 47.1 µM | SK-MEL-28 87.7 µM | SK-MEL-2 > 100 µM | SK-MEL-5 59.7 µM | SK-OV-3 > 100 µM | SN12C > 100 µM | SNB-19 > 100 µM | SNB-75 45.1 µM | SR 45.5 µM | SW-620 49.9 µM | T47D 30.1 µM | TK-10 > 100 µM | U-251 63.4 µM | UACC-257 > 100 µM | UACC-62 44.2 µM | UO-31 75.3 µM

CCOc1ccc(/N=N/c2ccc(-c3ccc(/N=N/c4c(O)ccc5cc(S(=O)(=O)O)cc(S(=O)(=O)O)c45)cc3)cc2)cc1
inactive: 786-0 > 100 µM | A549 > 100 µM | ACHN > 100 µM | BT-549 > 100 µM | CAKI-1 > 100 µM | CCRF-CEM > 100 µM | COLO 205 > 100 µM | EKVX > 100 µM | HCC 2998 > 100 µM | HCT-116 > 100 µM | HL-60 > 100 µM | HOP-62 > 100 µM | HOP-92 > 100 µM | HT-29 > 100 µM | Hs-578T > 100 µM | IGROV-1 > 100 µM | K562 > 100 µM | KM12 > 100 µM | M14 > 100 µM | MCF7 > 100 µM | MDA-MB-231 > 100 µM | MDA-MB-435 > 100 µM | MOLT-4 > 100 µM | Malme-3M 18.5 µM | NCI-H226 > 100 µM | NCI-H23 > 100 µM | NCI-H460 > 100 µM | NCI-H522 63.2 µM | NCI/ADR-RES > 100 µM | OVCAR-3 > 100 µM | OVCAR-4 > 100 µM | OVCAR-5 > 100 µM | OVCAR-8 > 100 µM | PC-3 > 100 µM | RPMI-8226 > 100 µM | RXF 393 > 100 µM | SF-268 > 100 µM | SF-295 > 100 µM | SF-539 > 100 µM | SK-MEL-28 > 100 µM | SK-MEL-2 > 100 µM | SK-MEL-5 > 100 µM | SK-OV-3 > 100 µM | SNB-19 > 100 µM | SR 66.2 µM | SW-620 > 100 µM | TK-10 > 100 µM | U-251 > 100 µM | UACC-257 > 100 µM | UACC-62 > 100 µM | UO-31 > 100 µM
86.5 µM: HCT-15
